Reference: patent US20240182941A1, “XYLOSYLATED STEVIOL GLYCOSIDES AND ENZYMATIC METHODS FOR PRODUCTION” (CARGILL, INCORPORATED, priority 2021, published 2024)
“And” between values parts separate entries of the source, which are not always exact repeats. Identical values can stand only once.

Assays:
[1] = tested on: SEQ ID NO:1; assay: Glycosylation of Reb F, Reb G and Dulcoside A using SEQ ID NO:1 and activated sugars; type: biochemical, Oryza sativa Japonica Group; settings: for Rhamnosylation using UDP-rhamnose compared with glucosylation and xylosylation / glucosylation and xylosylation plateauing after: -19C(O)-β-Glc residue; for glucosylation and xylosylation plateauing after: UDP-glucose and UDP-xylose
Method: Bioconversion reaction was carried out in a total of 100 uL sealed vials containing the Tris buffer, 0.1 μmoles of SG acceptor, 0.2 μmoles of activated sugar donor, 1 μmoles of sucrose and 2 ug protein of the enzymes. To each vial, buffer, sucrose, UDP-sugar donor, and SG acceptor were added in that order before finally the enzymes were added. For each SG donor, a control was included to contain the same amounts of sucrose and enzymes without UDP-sugar donors. After hand mixing, the vials were placed in a temperature-controlled shaker set at 30C and 100 rpm in rotating motion for 96 hours (4 days).
After 4 days of reaction, 0.9 mL of 80% acetonitrile was added to each vial and the resulting samples were analyzed in LC/MS. Xylose modification of the -19C(O)-β-Glc residue was confirmed.
The ability of SEQ ID NO:1 to glycosylate the -19C(O)-β-Glc residue of RebF, RebG, and Dulcoside A with different activated sugars used at different concentrations was examined, with the reaction products formed being measured over the course of the reaction.
UDP-glucose, UDP-xylose, and UDP-rhamnose di-sodium salts were used, and the reagents and reaction conditions were as described in Example 1.

[2] = Glycosyltransferase assay of SEQ ID NO:1 homologs and variants (IVTT enzymes) on Reb A; type: biochemical; settings: Reb A acceptor; for Activity relative to the activity of SEQ ID NO:1, Glucose: UDP-glucose; for Activity relative to the activity of SEQ ID NO:1, Glucose / Activity relative to the activity of SEQ ID NO:1, Xylose: SEQ ID1 = 100%; for Activity relative to the activity of SEQ ID NO:1, Xylose: UDP-xylose
Method: Candidate xylosyltransferase enzymes are produced in vitro using the PURExpress In Vitro Protein Synthesis kit from New England Biolabs (NEB #E6800) according to the manufacturer's instructions, including 250 ng plasmid DNA and the addition of 20 units RNase Inhibitor, Murine (NEB #M0314).
The steviol glycoside (SG) ‘acceptors’ Reb A was tested using 4 glucosyltransferase enzymes (SEQ ID NOs: 1-4) homologous to glucosyltransferases in SG biosynthesis in stevia leaves.
UDP-xylose (98.9% purity) was purchased from BOC Sciences. The activated sugar donors were prepared to 10 mM concentration with 0.05 M tris buffer and stored according to manufacturers' recommendations before use. SG materials were obtained from various sources with 90%+ purities. All SG materials were prepared at 20 mM with 90% DMSO and stored at ambient temperature. Final DMSO concentration in the reaction mixture was 4.5%.
Tris (tris(hydroxymethyl)aminomethane) buffer was prepared at 0.05 M, pH 7.3 and contained 3 mM each of MgCl2 and MnCl2 as co-factors.
Enzymes were produced via in vitro transcription-translation (IVTT) and activities were confirmed using UDP-glucose in a preliminary test. Bioconversion reaction was carried out in a total of 100 μL sealed vials containing the Tris buffer, 0.1 μmoles of SG acceptor, 0.2 μmoles of activated sugar donor, 1 μmoles of sucrose and 2 μg protein of the enzymes. To each vial, buffer, UDP-sugar donor, SG acceptor were added in that order before, finally, the enzymes were added. For each SG donor, a control was included to contain the same amounts of enzymes without UDP-sugar donors. […]
[…] Xylose modification of the -19C(O)-β-Glc residue was confirmed.
Activity of SEQ ID NOs: 2-4 is expressed relative to the activity of SEQ ID NO:1. […] [SEQ ID NO:3 was run more than once in this experiment,]

C=C1C[C@@]23CC[C@H]4[C@@](C)(CCC[C@@]4(C)C(=O)O[C@@H]4O[C@H](CO)[C@@H](O)[C@H](O)[C@H]4O)[C@@H]2CC[C@]1(O[C@@H]1O[C@H](CO)[C@@H](O)[C@H](O)[C@H]1O[C@@H]1O[C@@H](C)[C@H](O)[C@@H](O)[C@H]1O)C3 [Dulcoside A, dulcoside A]
Rhamnosylation using UDP-rhamnose compared with glucosylation and xylosylation [1]: significantly lower
% Dul A bioconversion ([1]; UDP-Glucose, 0 hours): 0%
% Dul A bioconversion ([1]; UDP-Glucose, 15 hours): 77.162%
% Dul A bioconversion ([1]; UDP-Glucose, 48 hours): 75.215%
% Dul A bioconversion ([1]; UDP-Glucose, 96 hours): 73.71%
% Dul A bioconversion ([1]; UDP-Rhamnose, 0 hours): 0%
% Dul A bioconversion ([1]; UDP-Rhamnose, 15 hours): 17.384%
% Dul A bioconversion ([1]; UDP-Rhamnose, 48 hours): 27.427%
% Dul A bioconversion ([1]; UDP-Rhamnose, 96 hours): 32.608%
% Dul A bioconversion ([1]; UDP-Xylose, 0 hours): 0%
% Dul A bioconversion ([1]; UDP-Xylose, 15 hours): 79.34%
% Dul A bioconversion ([1]; UDP-Xylose, 48 hours): 79.919%
% Dul A bioconversion ([1]; UDP-Xylose, 96 hours): 79.349%
glucosylation and xylosylation plateauing after [1]: 20 min

C=C1C[C@@]23CC[C@H]4[C@@](C)(CCC[C@@]4(C)C(=O)O[C@@H]4O[C@H](CO)[C@@H](O)[C@H](O)[C@H]4O)[C@@H]2CC[C@]1(O[C@@H]1O[C@H](CO)[C@@H](O)[C@H](O[C@@H]2O[C@H](CO)[C@@H](O)[C@H](O)[C@H]2O)[C@H]1O)C3 [Reb G, rebaudioside G]
Rhamnosylation using UDP-rhamnose compared with glucosylation and xylosylation [1]: significantly lower
% Reb G bioconversion ([1]; UDP-Glucose, 0 hours): 0%
% Reb G bioconversion ([1]; UDP-Glucose, 15 hours): 87.748%
% Reb G bioconversion ([1]; UDP-Glucose, 48 hours): 85.225%
% Reb G bioconversion ([1]; UDP-Glucose, 96 hours): 83.427%
% Reb G bioconversion ([1]; UDP-Rhamnose, 0 hours): 0%
% Reb G bioconversion ([1]; UDP-Rhamnose, 15 hours): 17.055%
% Reb G bioconversion ([1]; UDP-Rhamnose, 48 hours): 26.923%
% Reb G bioconversion ([1]; UDP-Rhamnose, 96 hours): 31.347%
% Reb G bioconversion ([1]; UDP-Xylose, 0 hours): 0%
% Reb G bioconversion ([1]; UDP-Xylose, 15 hours): 78.904%
% Reb G bioconversion ([1]; UDP-Xylose, 48 hours): 78.311%
% Reb G bioconversion ([1]; UDP-Xylose, 96 hours): 77.211%
glucosylation and xylosylation plateauing after [1]: 20 min

rebaudioside F [Reb F]
Rhamnosylation using UDP-rhamnose compared with glucosylation and xylosylation [1]: significantly lower
% Reb F bioconversion ([1]; UDP-Glucose, 0 hours): 0%
% Reb F bioconversion ([1]; UDP-Glucose, 15 hours): 85.9%
% Reb F bioconversion ([1]; UDP-Glucose, 48 hours): 85.96%
% Reb F bioconversion ([1]; UDP-Glucose, 96 hours): 84.4%
% Reb F bioconversion ([1]; UDP-Rhamnose, 0 hours): 0%
% Reb F bioconversion ([1]; UDP-Rhamnose, 15 hours): 17.5%
% Reb F bioconversion ([1]; UDP-Rhamnose, 48 hours): 28.412%
% Reb F bioconversion ([1]; UDP-Rhamnose, 96 hours): 33.216%
% Reb F bioconversion ([1]; UDP-Xylose, 0 hours): 0%
% Reb F bioconversion ([1]; UDP-Xylose, 15 hours): 86.406%
% Reb F bioconversion ([1]; UDP-Xylose, 48 hours): 86.2%
% Reb F bioconversion ([1]; UDP-Xylose, 96 hours): 84.179%
glucosylation and xylosylation plateauing after [1]: 20 min

B1: SEQ ID3: glucosyltransferase enzyme, 27% identity to SEQ ID NO:1 (protein, listed as Solanum lycopersicum)
chain: MATNLRVLMFPWLAYGHISPFLNIAKQLADRGFLIYLCSTRINLESIIKKIPEKYADSIHLIELQLPELPELPPHYHTTNGLPPHLNPTLHKALKMSKPNFSRILQNLKPDLLIYDVLQPWAEHVANEQNIPAGKLLTSCAAVFSYFFSFRKNPGVEFPFPAIHLPEVEKVKIREILAKEPEEGGRLDEGNKQMMLMCTSRTIEAKYIDYCTELCNWKVVPVGPPFQDLITNDADNKELIDWLGTKHENSTVFVSFGSEYFLSKEDMEEVAFALELSNVNFIWVARFPKGEERNLEDALPKGFLERIGERGRVLDKFAPQPRILNHPSTGGFISHCGWNSAMESIDFGVPIIAMPIHNDQPINAKLMVELGVAVEIVRDDDGKIHRGEIAETLKSVVTGETGEILRAKVREISKNLKSIRDEEMDAVAEELIQLCRNSNKSK
Activity relative to the activity of SEQ ID NO:1, Glucose ([2]; 18 hrs): 81.5% and 148%
Activity relative to the activity of SEQ ID NO:1, Glucose ([2]; 48 hrs): 87.1% and 132%
Activity relative to the activity of SEQ ID NO:1, Glucose ([2]; 96 hrs): 99.1% and 148%
Activity relative to the activity of SEQ ID NO:1, Xylose ([2]; 18 hrs): 47.1% and 78.1%
Activity relative to the activity of SEQ ID NO:1, Xylose ([2]; 48 hrs): 51.0% and 78.6%
Activity relative to the activity of SEQ ID NO:1, Xylose ([2]; 96 hrs): 38.9% and 62.1%

B2: SEQ ID2: glycosyltransferase variant with a single serine to isoleucine change at position 152 relative to SEQ ID NO:1 (protein, listed as Oryza sativa)
chain: MDSGYSSSYAAAAGMHVVICPWLAFGHLLPCLDLAQRLASRGHRVSFVSTPRNISRLPPVRPALAPLVAFVALPLPRVEGLPDGAESTNDVPHDRPDMVELHRRAFDGLAAPFSEFLGTACADWVIVDVFHHWAAAAALEHKVPCAMMLLGIAHMIASIADRRLERAETESPAAAGQGRPAAAPTFEVARMKLIRTKGSSGMSLAERFSLTLSRSSLVVGRSCVEFEPETVPLLSTLRGKPITFLGLMPPLHEGRREDGEDATVRWLDAQPAKSVVYVALGSEVPLGVEKVHELALGLELAGTRFLWALRKPTGVSDADLLPAGFEERTRGRGVVATRWVPQMSILAHAAVGAFLTHCGWNSTIEGLMFGHPLIMLPIFGDQGPNARLIEAKNAGLQVARNDGDGSFDREGVAAAIRAVAVEEESSKVFQAKAKKLQEIVADMACHERYIDGFIQQLRSYKD
overall activity relative to SEQ ID NO:1 ([2]; Table 8): substantially overall increased activity
Activity relative to the activity of SEQ ID NO:1, Glucose ([2]; 18 hrs): 825%
Activity relative to the activity of SEQ ID NO:1, Glucose ([2]; 48 hrs): 578%
Activity relative to the activity of SEQ ID NO:1, Glucose ([2]; 96 hrs): 504%
Activity relative to the activity of SEQ ID NO:1, Xylose ([2]; 18 hrs): 459%
Activity relative to the activity of SEQ ID NO:1, Xylose ([2]; 48 hrs): 392%
Activity relative to the activity of SEQ ID NO:1, Xylose ([2]; 96 hrs): 312%

B3: SEQ ID1: uridine 5′-diphospho (UDP) glycosyl transferase of 462 amino acids from Oryza sativa Japonica Group (protein, listed as Oryza sativa)
chain: MDSGYSSSYAAAAGMHVVICPWLAFGHLLPCLDLAQRLASRGHRVSFVSTPRNISRLPPVRPALAPLVAFVALPLPRVEGLPDGAESTNDVPHDRPDMVELHRRAFDGLAAPFSEFLGTACADWVIVDVFHHWAAAAALEHKVPCAMMLLGSAHMIASIADRRLERAETESPAAAGQGRPAAAPTFEVARMKLIRTKGSSGMSLAERFSLTLSRSSLVVGRSCVEFEPETVPLLSTLRGKPITFLGLMPPLHEGRREDGEDATVRWLDAQPAKSVVYVALGSEVPLGVEKVHELALGLELAGTRFLWALRKPTGVSDADLLPAGFEERTRGRGVVATRWVPQMSILAHAAVGAFLTHCGWNSTIEGLMFGHPLIMLPIFGDQGPNARLIEAKNAGLQVARNDGDGSFDREGVAAAIRAVAVEEESSKVFQAKAKKLQEIVADMACHERYIDGFIQQLRSYKD
Activity relative to the activity of SEQ ID NO:1, Glucose ([2]; 18 hrs): 100%
Activity relative to the activity of SEQ ID NO:1, Glucose ([2]; 48 hrs): 100%
Activity relative to the activity of SEQ ID NO:1, Glucose ([2]; 96 hrs): 100%
Activity relative to the activity of SEQ ID NO:1, Xylose ([2]; 18 hrs): 100%
Activity relative to the activity of SEQ ID NO:1, Xylose ([2]; 48 hrs): 100%
Activity relative to the activity of SEQ ID NO:1, Xylose ([2]; 96 hrs): 100%
